According to US12544374B2, “AZA-quinoline compounds and uses thereof” (Novartis AG, priority 2019, dated 2026):

Tests used:
[1] = molecular target: wild type PRC2 (wtPRC2) complex (Homo sapiens (Human), UniProt Q15910); experiment: EZH2 LC-MS assay (LC-Qualified); type: biochemical; conditions: (a) LC-Qualified assay
Protocol: Representative compounds of the invention were serially and separately diluted 3-fold in DMSO to obtain twelve concentrations. […] Solutions (6 μL) of 80 nM wild type PRC2 (wtPRC2) complex and 60 μM SAM in reaction buffer (20 mM Tris, pH 8.0, 0.1% BSA, 0.01% Triton, 0.5 mM DTT) were added to the wells that were then incubated with the test compound for 20 min. A 6 μL solution of 3 μM of the substrate peptide H3K27me1 (histone H3[21-44]-K27me1-biotin) and 6 μM regulatory peptide H3K27me3 (histone H3[21-44]-K27me3) in reaction buffer was added to initiate each reaction. […] The data were fit to a dose response equation using the program Helios to get the IC50 values of the test compound.

EZH2 = EZH2 (Homo sapiens (Human), UniProt Q15910); experiment: ELISA (H3K27 methylation) assay in G401 cell; type: cell-based; conditions: (b) ELISA Qualified assay, 48 h
Protocol: Representative compounds of the invention were serially and separately diluted 3-fold in DO to obtain a total of eight or twelve concentrations. Then the compounds were added to G401 cell cultured in 384-well plate at 1:500 dilution to obtain the highest concentration of 20 μM. The cells were further cultured for 48 h before ELISA procedure.
ELISA protocol: Cell lysates were transferred to the wells of a 384-well plate and the final volume was adjusted to 50 μL per well with PBS. The plate was sealed, centrifuged at 2,000 rpm for 2 min and incubated at 4° C. for about 16 h. The plate was washed with TBST buffer (1×TBS (10×TBS: 24.2 g Tris (Sigma, T6066), 80 g NaCl (Sigma, S3014) to 1 L of water and adjust pH to 7.6 with HCl) with 0.1% Tween-20). Blocking buffer (TBST, 5% BSA; 50 μL per well) was added and the plate was incubated for 1 h at rt. The blocking buffer was removed and primary antibody was added (30 μL per well). […] The primary antibody was incubated in the plate at rt for 1 h. The wells were washed with TBST and incubated with secondary antibody for 1 h at rt.
After 1 h of incubation at rt, the wells were washed with TBST. […] The signal was read using a PerkinElmer Envision Reader. The H3K27 methylation readouts were normalized using H3 signal and then percentage inhibition was calculated against the samples treated with DO. The data were fit to a dose response curve using the program Helios to get the IC50 values of the test compound.

EZH2, sequence (Q15910 whole entry): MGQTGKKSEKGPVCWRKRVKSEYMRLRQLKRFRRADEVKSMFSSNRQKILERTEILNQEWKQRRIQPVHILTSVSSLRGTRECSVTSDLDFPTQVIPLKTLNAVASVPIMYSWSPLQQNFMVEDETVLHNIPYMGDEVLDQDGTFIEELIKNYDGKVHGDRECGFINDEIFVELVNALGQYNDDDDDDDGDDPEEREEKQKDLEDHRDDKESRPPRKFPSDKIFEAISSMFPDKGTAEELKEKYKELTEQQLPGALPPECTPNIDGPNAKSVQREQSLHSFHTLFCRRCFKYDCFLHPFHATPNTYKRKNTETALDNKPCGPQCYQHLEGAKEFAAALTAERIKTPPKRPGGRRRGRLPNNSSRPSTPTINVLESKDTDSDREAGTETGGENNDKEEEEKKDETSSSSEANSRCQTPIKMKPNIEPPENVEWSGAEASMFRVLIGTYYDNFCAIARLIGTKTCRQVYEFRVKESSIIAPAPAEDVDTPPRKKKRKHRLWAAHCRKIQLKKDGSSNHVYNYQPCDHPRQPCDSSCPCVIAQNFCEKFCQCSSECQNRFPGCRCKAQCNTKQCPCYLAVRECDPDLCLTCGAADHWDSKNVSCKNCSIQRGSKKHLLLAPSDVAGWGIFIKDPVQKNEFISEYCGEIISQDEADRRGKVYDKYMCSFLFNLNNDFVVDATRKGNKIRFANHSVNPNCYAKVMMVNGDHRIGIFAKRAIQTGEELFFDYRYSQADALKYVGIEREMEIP
EZH2, sequence (Q15022 whole entry partner): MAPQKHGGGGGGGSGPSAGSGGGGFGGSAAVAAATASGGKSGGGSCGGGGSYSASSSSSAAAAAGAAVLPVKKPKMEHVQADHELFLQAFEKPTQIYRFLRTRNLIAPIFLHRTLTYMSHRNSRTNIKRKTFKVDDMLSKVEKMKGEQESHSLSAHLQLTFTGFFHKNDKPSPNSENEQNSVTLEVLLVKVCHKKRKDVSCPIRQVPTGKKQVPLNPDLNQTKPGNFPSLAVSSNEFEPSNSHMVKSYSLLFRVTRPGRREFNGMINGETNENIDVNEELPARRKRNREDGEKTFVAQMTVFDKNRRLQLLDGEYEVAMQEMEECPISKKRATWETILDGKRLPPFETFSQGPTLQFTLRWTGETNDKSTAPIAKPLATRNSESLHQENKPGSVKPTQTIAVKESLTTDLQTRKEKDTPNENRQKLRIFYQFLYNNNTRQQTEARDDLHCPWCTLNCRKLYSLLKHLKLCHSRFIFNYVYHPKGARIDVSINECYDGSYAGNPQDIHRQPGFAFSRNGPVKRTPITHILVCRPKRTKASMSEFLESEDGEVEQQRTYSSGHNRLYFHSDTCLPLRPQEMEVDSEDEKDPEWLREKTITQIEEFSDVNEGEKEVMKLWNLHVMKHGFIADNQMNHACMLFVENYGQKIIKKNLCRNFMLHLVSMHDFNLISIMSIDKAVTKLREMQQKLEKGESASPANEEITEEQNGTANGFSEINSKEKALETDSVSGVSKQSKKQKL
EZH2, sequence (O75530 whole entry partner): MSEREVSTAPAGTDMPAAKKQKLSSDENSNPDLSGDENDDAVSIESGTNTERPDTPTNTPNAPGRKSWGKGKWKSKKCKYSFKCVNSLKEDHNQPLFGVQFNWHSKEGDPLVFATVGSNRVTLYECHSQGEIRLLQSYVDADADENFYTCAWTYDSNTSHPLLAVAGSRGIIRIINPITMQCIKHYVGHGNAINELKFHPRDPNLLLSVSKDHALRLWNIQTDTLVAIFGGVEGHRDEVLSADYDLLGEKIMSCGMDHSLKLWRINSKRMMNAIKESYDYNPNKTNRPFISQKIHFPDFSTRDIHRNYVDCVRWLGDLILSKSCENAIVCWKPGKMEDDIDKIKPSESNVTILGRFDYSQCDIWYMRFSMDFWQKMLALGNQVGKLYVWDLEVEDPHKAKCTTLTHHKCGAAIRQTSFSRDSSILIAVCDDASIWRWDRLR
EZH2, sequence (Q09028 whole entry partner): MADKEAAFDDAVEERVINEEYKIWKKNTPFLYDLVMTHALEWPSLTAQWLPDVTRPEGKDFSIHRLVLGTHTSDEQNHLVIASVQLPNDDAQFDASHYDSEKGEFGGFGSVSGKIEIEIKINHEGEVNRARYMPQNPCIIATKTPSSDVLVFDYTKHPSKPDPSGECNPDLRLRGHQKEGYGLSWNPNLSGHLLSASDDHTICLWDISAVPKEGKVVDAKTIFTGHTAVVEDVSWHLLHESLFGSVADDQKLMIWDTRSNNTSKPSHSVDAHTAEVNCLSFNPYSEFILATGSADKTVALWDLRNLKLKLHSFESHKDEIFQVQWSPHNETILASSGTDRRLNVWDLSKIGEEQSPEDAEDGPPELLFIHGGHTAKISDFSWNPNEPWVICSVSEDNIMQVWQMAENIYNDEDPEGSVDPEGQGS
wild type PRC2 (wtPRC2) complex, sequence (Q15910 whole entry): as the sequence (Q15910 whole entry) above
wild type PRC2 (wtPRC2) complex, sequence (Q15022 whole entry partner): as the sequence (Q15022 whole entry partner) above
wild type PRC2 (wtPRC2) complex, sequence (O75530 whole entry partner): as the sequence (O75530 whole entry partner) above
wild type PRC2 (wtPRC2) complex, sequence (Q09028 whole entry partner): as the sequence (Q09028 whole entry partner) above
wild type PRC2 (wtPRC2) complex, sequence (Q6ZN18 whole entry partner): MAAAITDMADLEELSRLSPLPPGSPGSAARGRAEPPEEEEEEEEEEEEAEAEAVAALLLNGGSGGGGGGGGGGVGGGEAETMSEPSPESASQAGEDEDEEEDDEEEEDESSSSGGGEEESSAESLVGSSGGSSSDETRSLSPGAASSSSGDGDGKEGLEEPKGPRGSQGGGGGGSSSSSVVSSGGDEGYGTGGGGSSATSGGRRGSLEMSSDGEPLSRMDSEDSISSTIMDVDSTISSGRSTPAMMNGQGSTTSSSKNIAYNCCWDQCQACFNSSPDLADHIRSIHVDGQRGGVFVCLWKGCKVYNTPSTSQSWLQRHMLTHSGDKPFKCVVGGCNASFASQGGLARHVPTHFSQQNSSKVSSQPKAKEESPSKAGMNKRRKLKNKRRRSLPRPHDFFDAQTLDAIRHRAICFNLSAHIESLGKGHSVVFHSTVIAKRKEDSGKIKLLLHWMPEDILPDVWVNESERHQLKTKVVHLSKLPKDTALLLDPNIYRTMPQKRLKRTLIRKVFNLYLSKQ

IC50 [1] | IC50 (EZH2) | SMILES
0.096 µM | 0.037 µM | CNc1nccc2ccc(N[C@H]3CC[C@H](CNc4ncc(NC(C)=O)cn4)CC3)nc12 [Compound C63, N-(2-((((1,4-trans)-4-((8-(methylamino)-1,7-naphthyridin-2-yl)amino)cyclohexyl)methyl)amino)pyrimidin-5-yl)acetamide]
0.049 µM | 0.056 µM | O=C(NC1COC1)C(CO)c1cnc(NC[C@H]2CC[C@H](Nc3ccc4ccnc(Cl)c4n3)CC2)nc1 (stereo partly drawn) [Compound C72, 2-(2-((((1,4-trans)-4-((8-chloro-1,7-naphthyridin-2-yl)amino)cyclohexyl)methyl)amino)pyrimidin-5-yl)-3-hydroxy-N-(oxetan-3-yl)propanamide]
0.035 µM | 0.136 µM | CC(C(=O)N1CC(O)C1)c1cnc(NC[C@H]2CC[C@H](Nc3ccc4ccnc(Cl)c4n3)CC2)nc1 (mixture of isomers) [Compound C69, 2-(2-((((1,4-trans)-4-((8-chloro-1,7-naphthyridin-2-yl)amino)cyclohexyl)methyl)amino)pyrimidin-5-yl)-1-(3-hydroxyazetidin-1-yl)propan-1-one]
0.051 µM | 0.032 µM | CC1(NCCc2cnc(NC[C@H]3CC[C@H](Nc4ccc5ccnc(Cl)c5n4)CC3)nc2)COC1 [Compound C47, 8-chloro-N-((1,4-trans)-4-(((5-(2-((3-methyloxetan-3-yl)amino)ethyl)pyrimidin-2-yl)amino)methyl)cyclohexyl)-1,7-naphthyridin-2-amine]
0.029 µM | 0.036 µM | Clc1nccc2ccc(N[C@H]3CC[C@H](CNc4ncc(-c5nnc[nH]5)cn4)CC3)nc12 [Compound C67, N-((1,4-trans)-4-(((5-(4H-1,2,4-triazol-3-yl)pyrimidin-2-yl)amino)methyl)cyclohexyl)-8-chloro-1,7-naphthyridin-2-amine]
0.039 µM | 0.027 µM | Clc1nccc2ccc(N[C@H]3CC[C@H](CNc4ncc(CCNC5COC5)cn4)CC3)nc12 [Compound C48, 8-chloro-N-((1,4-trans)-4-(((5-(2-(oxetan-3-ylamino)ethyl)pyrimidin-2-yl)amino)methyl)cyclohexyl)-1,7-naphthyridin-2-amine]
0.049 µM | 0.018 µM | CC(CO)Oc1cnc(NC[C@H]2CC[C@H](Nc3ccc4ccnc(Cl)c4n3)CC2)nc1 (stereo partly drawn) [Compound C68, 2-((2-((((1,4-trans)-4-((8-chloro-1,7-naphthyridin-2-yl)amino)cyclohexyl)methyl)amino)pyrimidin-5-yl)oxy)propan-1-ol]
0.038 µM | 0.117 µM | O=C(NCc1cnc(NC[C@H]2CC[C@H](Nc3ccc4ccnc(Cl)c4n3)CC2)nc1)C1CCN1 (stereo partly drawn) [Compound C58, N-((2-((((1,4-trans)-4-((8-chloro-1,7-naphthyridin-2-yl)amino)cyclohexyl)methyl)amino)pyrimidin-5-yl)methyl)azetidine-2-carboxamide]

Second part, the compound before the results:

SMILES | IC50 [1] | IC50 (EZH2)
COc1nccc2ccc(N[C@H]3CC[C@H](CNc4ncc(-c5ncn[nH]5)cn4)CC3)nc12 [Compound C12, N-((1,4-trans)-4-(((5-(1H-1,2,4-triazol-5-yl)pyrimidin-2-yl)amino)methyl)cyclohexyl)-8-methoxy-1,7-naphthyridin-2-amine] | 0.075 µM | 0.052 µM
COc1nccc2ccc(N[C@H]3CC[C@H](CNc4ncc(CC(=O)NC5COC5)cn4)CC3)nc12 [Compound C13, 2-(2-((((1,4-trans)-4-((8-methoxy-1,7-naphthyridin-2-yl)amino)cyclohexyl)methyl)amino)pyrimidin-5-yl)-N-(oxetan-3-yl)acetamide] | 0.042 µM | 0.013 µM
O=C(CCC(=O)N1CCOCC1)Nc1cnc(NC[C@H]2CC[C@H](Nc3ccc4ccnc(Cl)c4n3)CC2)nc1 [Compound C20, N-(2-((((1,4-trans)-4-((8-chloro-1,7-naphthyridin-2-yl)amino)cyclohexyl)methyl)amino)pyrimidin-5-yl)-4-morpholino-4-oxobutanamide] | 0.068 µM | 0.127 µM
O=C(Cc1cnc(NC[C@H]2CC[C@H](Nc3ccc4ccnc(Cl)c4n3)CC2)nc1)N1CCN(CCO)CC1 [Compound C40, 2-(2-((((1,4-trans)-4-((8-chloro-1,7-naphthyridin-2-yl)amino)cyclohexyl)methyl)amino)pyrimidin-5-yl)-1-(4-(2-hydroxyethyl)piperazin-1-yl)ethan-1-one] | 0.046 µM | 0.028 µM
O=C(Nc1cnc(NC[C@H]2CC[C@H](Nc3ccc4ccnc(Cl)c4n3)CC2)nc1)OCCO [Compound C17, 2-hydroxyethyl (2-((((1,4-trans)-4-((8-chloro-1,7-naphthyridin-2-yl)amino)cyclohexyl)methyl)amino)pyrimidin-5-yl)carbamate] | 0.088 µM | 0.01 µM
Nc1cnc(NC[C@H]2CC[C@H](Nc3ccc4ccnc(Cl)c4n3)CC2)nc1 [Compound C14, N^2-(((1,4-trans)-4-((8-chloro-1,7-naphthyridin-2-yl)amino)cyclohexyl)methyl)pyrimidine-2,5-diamine] | 0.116 µM | 0.056 µM
O=C(c1cnc(NC[C@H]2CC[C@H](Nc3ccc4ccnc(Cl)c4n3)CC2)nc1)N1CCOCC1 [Compound C22, (2-((((1,4-trans)-4-((8-chloro-1,7-naphthyridin-2-yl)amino)cyclohexyl)methyl)amino)pyrimidin-5-yl)(morpholino)methanone] | 0.046 µM | 0.188 µM
OC1CC(NCc2cnc(NC[C@H]3CC[C@H](Nc4ccc5ccnc(Cl)c5n4)CC3)nc2)C1 (stereo partly drawn) [Compound C33, 3-(((2-((((1,4-trans)-4-((8-chloro-1,7-naphthyridin-2-yl)amino)cyclohexyl)methyl)amino)pyrimidin-5-yl)methyl)amino)cyclobutan-1-ol] | 0.042 µM | 0.044 µM
OC1CN(Cc2cnc(NC[C@H]3CC[C@H](Nc4ccc5ccnc(Cl)c5n4)CC3)nc2)C1 [Compound C29, 1-((2-((((1,4-trans)-4-((8-chloro-1,7-naphthyridin-2-yl)amino)cyclohexyl)methyl)amino)pyrimidin-5-yl)methyl)azetidin-3-ol] | 0.02 µM | 0.022 µM
O=C(Cc1cnc(NC[C@H]2CC[C@H](Nc3ccc4ccnc(Cl)c4n3)CC2)nc1)N1CC(O)C1 [Compound C38, 2-(2-((((1,4-trans)-4-((8-chloro-1,7-naphthyridin-2-yl)amino)cyclohexyl)methyl)amino)pyrimidin-5-yl)-1-(3-hydroxyazetidin-1-yl)ethan-1-one] | 0.024 µM | 0.029 µM
COc1nccc2ccc(N[C@H]3CC[C@H](CNc4ncc(NC(=O)C5CN(C)C5)cn4)CC3)nc12 [Compound C3, N-(2-((((1,4-trans)-4-((8-methoxy-1,7-naphthyridin-2-yl)amino)cyclohexyl)methyl)amino)pyrimidin-5-yl)-1-methylazetidine-3-carboxamide] | 0.054 µM | 0.025 µM
COc1nccc2ccc(N[C@H]3CC[C@H](CNc4ncc(NC(=O)CO)cn4)CC3)nc12 [Compound C7, 2-hydroxy-N-(2-((((1,4-trans)-4-((8-methoxy-1,7-naphthyridin-2-yl)amino)cyclohexyl)methyl)amino)pyrimidin-5-yl)acetamide] | 0.111 µM | 0.131 µM
N#Cc1cnc(NC[C@H]2CC[C@H](Nc3ccc4ccnc(Cl)c4n3)CC2)nc1 [Compound C21, 2-((((1,4-trans)-4-((8-chloro-1,7-naphthyridin-2-yl)amino)cyclohexyl)methyl)amino)pyrimidine-5-carbonitrile] | 0.04 µM | 0.04 µM
O=C(Cc1cnc(NC[C@H]2CC[C@H](Nc3ccc4ccnc(Cl)c4n3)CC2)nc1)N1CCNCC1 [Compound C41, 2-(2-((((1,4-trans)-4-((8-chloro-1,7-naphthyridin-2-yl)amino)cyclohexyl)methyl)amino)pyrimidin-5-yl)-1-(piperazin-1-yl)ethan-1-one] | 0.035 µM | 0.031 µM
COc1nccc2ccc(N[C@H]3CC[C@H](CNc4ncc(C(=O)N5CCOCC5)cn4)CC3)nc12 [Compound C10, (2-((((1,4-trans)-4-((8-methoxy-1,7-naphthyridin-2-yl)amino)cyclohexyl)methyl)amino)pyrimidin-5-yl)(morpholino)methanone] | 0.194 µM | 0.191 µM
CN1CCN(C(=O)Cc2cnc(NC[C@H]3CC[C@H](Nc4ccc5ccnc(Cl)c5n4)CC3)nc2)CC1 [Compound C43, 2-(2-((((1,4-trans)-4-((8-chloro-1,7-naphthyridin-2-yl)amino)cyclohexyl)methyl)amino)pyrimidin-5-yl)-1-(4-methylpiperazin-1-yl)ethan-1-one] | 0.057 µM | 0.067 µM
